Experimental data taken from patent publication US20260055081A1, “Metal Chelator Compounds, Coordination Complexes, and Methods of Preparation and Use Thereof” (University of Puerto Rico, priority 2022, published 2026).
Counter-ions that a name gives are not always drawn.

Tests used:
[1] = test system: red blood cells; assay: CO-ADD hemolysis assay; format: cell-based, human; conditions: for hemolysis behavior relative to DefNEtTrp (minor hemolysis): human red blood cells
Procedure: CO-ADD hemolysis assay. Dry compounds ranging from 1-2 mg were delivered to the CO-ADD. The compounds were solubilized to a stock concentration of 10 mg/mL in DMSO. Samples were serially diluted 1:2 fold in water to final testing concentrations of […] while keeping the final DMSO concentration to a maximum of 0.32% (v/v). Each sample concentration was prepared in polypropylene 384-well plates (Corning 3657) for hemolysis assays, all in two duplicate plates (n=2). All sample preparation was conducted using liquid handling robots. Human whole blood (Australian Red Cross) was washed three times with three volumes of 0.9% NaCl (w/v) and resuspended in a concentration of […], determined by manual cell count in a Neubauer hemocytometer. Washed cells were added to the compound-containing plates for a final volume of 50 μL. After a 10 min shake on a plate shaker the plates were then incubated for 1 h at 37° C. After incubation, the plates were centrifuged at 1000 g for 10 min to pellet cells and debris, 25 μL of the supernatant was then transferred to reading plates (384 well, polystyrene plated (PS), Corning CLS3680), with hemolysis determined by measuring the supernatant absorbance at […] (OD405) using a Tecan M1000 Pro monochromator plate reader. HC10 and HC50 (concentration at 10% and 50% hemolysis, respectively) were calculated by curve fitting the inhibition values vs. log(concentration) using a sigmoidal dose-response function with variable fitting values for the top, bottom, and slope. The maximal percentage of hemolysis is reported as Dmax. Hemolysis samples are classified by HC10≤32 μg/mL. […] Melittin was used in 8 concentrations in 2-fold serial dilutions with 50 µg/mL being the highest concentration.

[2] = test system: Jurkat Leukemia cell line; assay: Jurkat cell viability (MTT assay); format: cell-based; conditions: Homo sapiens; Jurkat cell line, 72 h, MTT
Procedure: Jurkat cell culturing and cell viability studies. Jurkat cells are nonadherent cells, and they were cultured in an RPMI-1640 media (supplemented with 10% FBS (v/v) and 1% antibiotic solution (v/v) of penicillin/streptomycin) in non-tissue-culture treated 25 mL flasks according to the known protocol provided by the supplier ATCC. The cell passaging was done at 70% confluency by taking 3 mL of cells and diluting to 25 mL of fresh media. The cells were incubated at 37° C. in 5% CO2 atmosphere.
Jurkat cytotoxicity of DefNEtTrp (6), Def (5), NEtTrp (4), Trp, and 1:1 combinations of 5 with 4 and 5 with Trp was determined by the colorimetric 3-(4,5-dimethylthiazol-2-yl)-2,5-diphenyltetrazolium bromide (MTT) assay. Incubation conditions were the same in all the steps. Cells in 80-95% confluence (grown in standard circular tissue culture dishes, BD Falcon) were separately seeded into 96-well plates using phenol red free RPMI-1640 media (containing 10% FBS and 1% streptomycin/penicillin) in a volume of 50 μL at a concentration of 5.0×10^5 cells/mL. Following this procedure, the Jurkat cells were treated immediately. Stock solution of the compounds were first prepared in DMF at 5 mM and stored at 4° C. for up to 30 days. The stock solution was diluted to specific concentrations using 1×PBS (0.2-20 μM) while DMF was maintained at 1% (v/v). 50 μL of diluted solutions were added in all cell containing wells with at least six replicates per concentration (n=6). The final percentage (v/v) of DMF was 0.5%. The cells were also co-treated with 5 with 4 and 5 with Trp in a 1:1 mole equivalent ratio over the same concentration range but as a combined concentration of both compounds. Control wells in the plates consisted of one lane of cells treated with media alone including 0.5% DMF (v/v) as the measure of 100% viable cell growth in the media. Another control lane consisted of no cells with media including 0.5% DMF (v/v) as a measure of the background with no viable cells. The plates were incubated for 72 h. At 4 h before completion of the incubation time, 25 μL of MTT solution (sterile filtered 5 mg/mL solution, dissolved in 1×PBS buffer) was added to each well. During addition of the MTT solution, the plates were protected from light. After completion a 50 μL portion of 4% (w/v) SDS solution (sterile filtered, dissolved in Tris buffer 1M, pH=10) was added to each well and incubated to solubilize formazan crystals after MTT cell labeling. The absorbance of each well was measured at 570 nm (absorbance of the formazan product at pH >10.0) and 800 nm (as a background correction) using a Tecan plate reader. The absorbance of all wells was compared to the absorbance of the untreated cells with the MTT set as the 100% viable cell standard and the absorbance of the no cell control set as the 0% viable cell standard. Nonlinear regression in GraphPad Prism 8 was utilized to fit the growth curve over the various drug concentrations to determine the half-maximal inhibitory concentration (IC50). All cell viability experiments, including non-Jurkat cells, were repeated at least once for biological duplicates. To confirm cell death at the higher concentration dosages of the compounds and combinations, dead cells were blue stained with trypan blue and visually inspected under the microscope.

[3] = test system: Jurkat cells; assay: Apoptosis mechanistic cell viability study (Q-VD-OPh); format: cell-based, human; conditions: 10 μM Q-VD-OPh pretreatment, 2 μM cisplatin, 72 h
Procedure: Apoptosis mechanistic cell viability study. Jurkat cells were seeded into 96-well plates, as indicated in the MTT assay described above. The cells were treated with 10 μM of the apoptosis inhibitor Q-VD-OPh (Q-V-O). Another group of cells were treated with media alone. After 1 h incubation, half of the cells supplemented with Q-V-O were treated with 2 μM DefNEtTrp or 2 μM cisplatin, as positive control, while the other half was treated with media alone. The final percentage of DMF was maintained at 0.5% (v/v). The MTT assay was performed with these samples (n=6). A student t-test was performed to evaluate the difference in the viability of cells treated with DefNEtTrp or cisplatin and supplemented with and without Q-V-O.

In the case of `O=C(O)c1ccc(-n2nc(-c3ccccc3O)nc2-c2ccccc2O)cc1` [Def, deferasirox, reference compound], the “hemolysis behavior relative to DefNEtTrp (minor hemolysis)” value (from here on “hemolysis behavior relative to DefNEtTrp”) [1] is reported as “comparable” and the IC50 [2] is reported as 2600 ± 150 nM.
In the case of `CC[C@H](C)[C@H](NC(=O)CN)C(=O)NCC(=O)N[C@@H](C)C(=O)N[C@H](C(=O)N[C@@H](CC(C)C)C(=O)N[C@@H](CCCCN)C(=O)N[C@H](C(=O)N[C@@H](CC(C)C)C(=O)N[C@H](C(=O)N[C@H](C(=O)NCC(=O)N[C@@H](CC(C)C)C(=O)N1CCC[C@H]1C(=O)N[C@@H](C)C(=O)N[C@@H](CC(C)C)C(=O)N[C@H](C(=O)N[C@@H](CO)C(=O)N[C@@H](Cc1c[nH]c2ccccc12)C(=O)N[C@H](C(=O)N[C@@H](CCCCN)C(=O)N[C@@H](CCCNC(=N)N)C(=O)N[C@@H](CCCCN)C(=O)N[C@@H](CCCNC(=N)N)C(=O)N[C@@H](CCC(N)=O)C(=O)N[C@@H](CCC(N)=O)C(N)=O)[C@@H](C)CC)[C@@H](C)CC)[C@@H](C)O)[C@@H](C)O)C(C)C)C(C)C` [Melittin], the “HC10 and HC50 values” ([1]; positive hemolytic control) is reported as “within the expected range”.
With `NCCNC(=S)N/N=C/c1ncccc1N` [NEtTrp, nitrogen ethyl triapine dihydrochloride] the “hemolysis behavior relative to DefNEtTrp” value [1] was “comparable” and the IC50 [2] was 5900 ± 290 nM.
In the case of `NC(=S)NN=Cc1ncccc1N` [Trp, 3-aminopyridine-2-carboxaldehyde-thiosemicarbazone, reference compound], the “hemolysis behavior relative to DefNEtTrp” value [1] is reported as “comparable” and the IC50 [2] is reported as 1100 ± 40 nM.
In the case of `N.N.[Cl][Pt][Cl]` [cisplatin, reference compound], the “antiproliferative activity when cells are pretreated with Q-VD-OPh” value [3] is reported as “less antiproliferative activity”.
